Results reported in patent US20240368232A1, “ANTIVIRAL LARAZOTIDE DERIVATIVES” (priority 2021, published 2024).
Like-named read-outs stand apart in the source and are kept apart here. Square brackets hold non-standard residues; d marks the D form. Peptide text beside a SMILES is read from it.

What was measured:
[1] = tested on: SARS-COV-2 SA (RG) strain; test: microbe, parasite or virus in culture; conditions: Severe acute respiratory syndrome coronavirus 2, Vero, read-out: Antiviral activity EC50 SA (RG) strain Vero cells
[2] = tested on: SARS-COV-2 SA (RG) strain

Row | SMILES | EC50 [1] [nM] | EC50 [2] [nM]
1 | CCC(CC)COC(=O)[C@H](C)N[P@](=O)(OC[C@H]1O[C@@](C#N)(c2ccc3c(N)ncnn23)[C@H](O)[C@@H]1O)Oc1ccccc1 [Remdesivir] | 840 | 
2 | CC(=O)NCC(=O)N[C@H](Cc1ccccc1)C(=O)N[C@H](C=O)Cc1c[nH]cn1 [TRIP 5] (Ac-Gly-[dF]-His-aldehyde) |  | > 100000
